{"source": "patent US9012431B2", "about": "“Boron-containing small molecules as anti-inflammatory agents” (Anacor Pharmaceuticals, Inc., priority 2008, dated 2015)", "key": {"[1]": {"system": "Salmonella typhimurium strains TA98, TA100, TA1535, and TA1537", "assay": "Bacterial mutagenicity assay with/without Aroclor-induced S9 (Salmonella)", "assay_type": "cell-based", "conditions": "up to 5000 μg per plate; presence or absence of Aroclor-induced S9 liver fraction"}, "[2]": {"system": "Escherichia coli strain WP2 uvrA", "assay": "Bacterial mutagenicity assay with/without Aroclor-induced S9 (E. coli)", "assay_type": "cell-based", "conditions": "up to 5000 μg per plate; presence or absence of Aroclor-induced S9 liver fraction"}, "[3]": {"system": "IL-1β production by human PBMCs", "assay": "IL-1β production by LPS- or PHA-stimulated PBMCs", "assay_type": "cell-based"}, "[4]": {"system": "IL-2 secretion from PBMCs", "assay": "IL-2 secretion from PBMCs stimulated with PHA", "assay_type": "cell-based, human", "conditions": "PBMC", "source_text": "Compounds were screened by a biochemical assay against PDE4 enzyme and cell-based cytokine release assays using PBMCs stimulated by LPS or phytohemagglutinin (PHA)."}, "PDE7A1": {"target": "T1, PDE7A1 (Homo sapiens, UniProt Q13946)", "T1 construct": "made in house; host or cells: baculoviral expression system", "T1 sequence (Q13946 whole entry)": "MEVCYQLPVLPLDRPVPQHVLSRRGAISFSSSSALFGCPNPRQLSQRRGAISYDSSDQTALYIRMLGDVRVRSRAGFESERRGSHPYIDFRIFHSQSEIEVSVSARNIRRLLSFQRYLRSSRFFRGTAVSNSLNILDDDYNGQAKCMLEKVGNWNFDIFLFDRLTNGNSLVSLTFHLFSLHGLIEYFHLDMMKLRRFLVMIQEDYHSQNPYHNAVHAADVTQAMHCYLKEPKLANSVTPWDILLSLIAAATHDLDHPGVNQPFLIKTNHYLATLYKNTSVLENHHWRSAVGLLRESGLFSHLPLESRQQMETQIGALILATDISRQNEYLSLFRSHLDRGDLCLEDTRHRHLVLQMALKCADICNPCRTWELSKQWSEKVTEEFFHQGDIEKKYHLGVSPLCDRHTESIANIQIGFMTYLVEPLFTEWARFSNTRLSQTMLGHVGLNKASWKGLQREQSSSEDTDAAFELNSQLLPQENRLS", "assay": "PDE7 inhibition", "assay_type": "biochemical"}, "PDE3 Cat": {"system": "T2, PDE3 Cat", "T2 construct": "Recombinant human PDE enzymes were expressed in a baculoviral system.; PDE isoforms tested include", "assay": "PDE3 inhibition", "assay_type": "biochemical"}, "PDE4Cat": {"system": "T3, PDE4Cat", "T3 construct": "Recombinant human PDE enzymes were expressed in a baculoviral system.", "assay": "PDE4Cat inhibition", "assay_type": "biochemical", "conditions": "standard: Rolipram"}, "[5]": {"system": "TNF-α, IFN-γ, IL-1μ, IL-2, IL-4, IL-5, IL-6, IL-8, IL-10, IL-12, and IL-23", "assay": "Release of pro-inflammatory cytokines (summary statement)", "assay_type": "cell-based", "source_text": "This activity is explained in part by the inhibition of phosphodiesterase-4 (PDE-4)."}}, "note": "Read-outs that look alike come from different tables or passages of the source.", "data": [{"compound": "N#Cc1ccc(Oc2ccc3c(c2)COB3O)cc1", "note": "[C17, 5-(4-cyanophenoxy)-1-hydroxy-1,3-dihydro-2,1-benzoxaborole]", "values": [{"measurement": "mutagenic activity", "setting": "[1]", "result": "no mutagenic activity"}, {"measurement": "mutagenic activity", "setting": "[2]", "result": "no mutagenic activity"}, {"measurement": "IC50", "setting": "[3]; PBMC, LPS- and PHA-induced cytokine production by human PBMCs, read-out: IC50 IL-1β (pro-inflammatory cytokines)", "result": "> 30000", "unit": "nM"}, {"measurement": "effect on IL-1", "setting": "[3]; PBMCs", "result": "not affected"}, {"measurement": "IC50", "setting": "[4]; Homo sapiens, PBMCs stimulated with PHA, read-out: IL-2 secretion IC50", "result": 460, "unit": "nM"}, {"measurement": "IC50", "setting": "[4]; LPS- and PHA-induced cytokine production by human PBMCs, read-out: IC50 IL-2 (Th1 cytokines)", "result": "< 1000", "unit": "nM"}, {"measurement": "IC50", "setting": "PDE7A1; read-out: PDE7 IC50", "result": 730, "unit": "nM"}, {"measurement": "IC50", "setting": "PDE7A1; standard: BRL-50481, read-out: IC50 PDE7A1", "result": "< 1000", "unit": "nM"}, {"measurement": "inhibition of PDE3", "setting": "PDE3 Cat", "result": "does not significantly inhibit"}, {"measurement": "IC50", "setting": "PDE3 Cat; standard: Cilostazol", "result": "1000 to 10000", "unit": "nM"}, {"measurement": "IC50", "setting": "PDE4Cat", "result": "< 1000", "unit": "nM"}, {"measurement": "release of pro-inflammatory cytokines including TNF-α, IFN-γ, IL-1μ, IL-2, IL-4, IL-5, IL-6, IL-8, IL-10, IL-12, and IL-23", "setting": "[5]", "result": "inhibition of the release"}]}]}
